Data as given in US6472348B1, “Pyridone derivatives and herbicides” (Kumiai Chemical Industry Co., Ltd., priority 1996, dated 2002).

Legend:
Assay type in all cases: in vivo
barnyardgrass (Ec) [1] = test: Test Example 1: herbicidal effects by paddy field soil treatment; conditions: 100 g of the active ingredient per 10 ares, 21st day after the application, index 0-5 of Table 47;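 also: grade of growth control; 5 = at least 90%; 4 = 70 to 90%; 3 = 50 to 70%; 2 = 30 to 50%; 1 = 10 to 30%; 0 = under 10%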
Procedure, shortened: (§1)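 Scoring of herbicidal effect came 21 days after application of 100 g active ingredient per 10 ares to flooded (3 cm) paddy-soil pots sown with barnyardgrass, monochoria and bulrush, kept in a greenhouse.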

bulrush (Sc) = test: as above; conditions: 100 g of the active ingredient per 10 ares, 21st day after the application, index 0-5 of Table 47;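 also: grade of growth control; 5 = at least 90%; 4 = 70 to 90%; 3 = 50 to 70%; 2 = 30 to 50%; 1 = 10 to 30%; 0 = under 10%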
Procedure, shortened: as §1

monochoria (Mo) = test: as above; conditions: 100 g of the active ingredient per 10 ares, 21st day after the application, index 0-5 of Table 47;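 also: grade of growth control; 5 = at least 90%; 4 = 70 to 90%; 3 = 50 to 70%; 2 = 30 to 50%; 1 = 10 to 30%; 0 = under 10%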
Procedure, shortened: as §1

Digitaria ciliaris (Di) = test: Test Example 2: herbicidal effects by upland field soil treatment; conditions: 100 g of the active ingredient per 10 ares, evaluated on the 21st day after application;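 also: grade of growth control; 5 = at least 90%; 4 = 70 to 90%; 3 = 50 to 70%; 2 = 30 to 50%; 1 = 10 to 30%; 0 = under 10%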
From the text: (§2) (Test on Herbicidal Effects by Upland Field Soil Treatment)

barnyardgrass (Ec) [2] = test: as above; conditions: 100 g of the active ingredient per 10 ares, evaluated on the 21st day after application
From the text: as §2

[3] = tested on: common lambsquarters (Ch); test: as above; conditions: 100 g of the active ingredient per 10 ares, evaluated on the 21st day after application
From the text: as §2

pale smartweed (Po) [4] = test: as above; conditions: 100 g of the active ingredient per 10 ares, evaluated on the 21st day after application
From the text: as §2

rice flatsedge (Ci) [5] = test: as above; conditions: 100 g of the active ingredient per 10 ares, evaluated on the 21st day after application
From the text: as §2

slender amaranth (Am) [6] = test: as above; conditions: 100 g of the active ingredient per 10 ares, evaluated on the 21st day after application
From the text: as §2

Diaitaria ciliaris (Di) [7] = test: Test Example 3: herbicidal effects by upland field foliage treatment; parameters: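 grade of growth control; 5 = at least 90%; 4 = 70 to 90%; 3 = 50 to 70%; 2 = 30 to 50%; 1 = 10 to 30%; 0 = under 10%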; conditions: 100 g active ingredient per 10 ares, evaluated 14th day after treatment
Procedure, shortened: (§3)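 Weeds were sown in sand-filled pots (surface area: 120 cm^2), covered with soil and grown in a greenhouse for 2 weeks before foliar treatment. Plants then stayed in the greenhouse, and herbicidal effect was scored against graded standards on the 14th day after treatment.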

barnyardgrass (Ec) [8] = test: as above; parameters: scale not given here; conditions: 100 g active ingredient per 10 ares, evaluated 14th day after treatment
Procedure, shortened: as §3

[9] = tested on: common lambsquarters (Ch); test: as above; parameters: scale not given here; conditions: 100 g active ingredient per 10 ares, evaluated 14th day after treatment
Procedure, shortened: as §3

pale smartweed (Po) [10] = test: as above; parameters: scale not given here; conditions: 100 g active ingredient per 10 ares, evaluated 14th day after treatment
Procedure, shortened: as §3

rice flatsedge (Ci) [11] = test: as above; parameters: scale not given here; conditions: 100 g active ingredient per 10 ares, evaluated 14th day after treatment
Procedure, shortened: as §3

slender amaranth (Am) [12] = test: as above; parameters: scale not given here; conditions: 100 g active ingredient per 10 ares, evaluated 14th day after treatment
Procedure, shortened: as §3

cotton (Go) = test: Test Example 4: crop plant selectivity by upland field soil treatment (cotton), phytotoxicity; parameters: scale not given here; conditions: evaluated 21st day after application
Procedure, shortened: (§4)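 Seeds of cotton and several weed species were sown in sand-filled pots and covered with soil before soil treatment with the test compound. Plants were grown in a greenhouse, and herbicidal effect and crop phytotoxicity were scored against set standards 21 days after application.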

Diaitaria ciliaris (Di) [13] = test: Test Example 4: crop plant selectivity by upland field soil treatment (cotton), herbicidal effects; conditions: evaluated 21st day after application
Method: (§5) (Test on Crop Plant Selectivity by Upland Field Soil Treatment)
In a plastic pot (surface area: 600 cm^2) filled with sand, cotton (Go), Diaitaria ciliaris (Di), green foxtail (Se), pale smartweed (Po), slender amaranth (Am), common lambsquarters (Ch) and China jute (Ab) were sown and covered with soil. […] The plants were then cultured in a green house, and the evaluation of the herbicidal effects and phytotoxicity was conducted on the 21st day after the application in accordance with the standards as identified in Table 47. Symbol—represents “not tested”.

China jute (Ab) [14] = test: as above; parameters: scale not given here; conditions: evaluated 21st day after application
Procedure, shortened: as §4

[15] = tested on: common lambsquarters (Ch); test: as above; parameters: scale not given here; conditions: evaluated 21st day after application
Procedure, shortened: as §4

green foxtail (Se) [16] = test: as above; parameters: scale not given here; conditions: evaluated 21st day after application
Procedure, shortened: as §4

pale smartweed (Po) [17] = test: as above; parameters: scale not given here; conditions: evaluated 21st day after application
Procedure, shortened: as §4

slender amaranth (Am) [18] = test: as above; parameters: scale not given here; conditions: evaluated 21st day after application
Procedure, shortened: as §4

soybean (Gl) = test: Test Example 6: crop plant selectivity by upland field soil treatment (soybean), phytotoxicity; parameters: scale not given here; conditions: dose 1.6 g ai/10a, 21st day after application
Procedure, shortened: (§6)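 Seeds are sown in sand and covered with soil. The soil is treated with test compound. Pots are kept in a greenhouse. Weed control and soybean damage are rated visually 21 days after application.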

Diaitaria ciliaris (Di) [19] = test: Test Example 6: crop plant selectivity by upland field soil treatment (soybean), herbicidal effects; conditions: dose 1.6 g ai/10a, 21st day after application
Method: as §5
(§7) In a plastic pot (surface area: 600 cm^2) filled with sand, soybean (Gl), Diaitaria ciliaris (Di), green foxtail (Se), Johnsongrass (So), pale smartweed (Po), slender amaranth (Am), common lambsquarters (Ch) and China jute (Ab) were sown and covered with soil. […] The plants were then cultured in a green house, and the evaluation of the herbicidal effects and phytotoxicity was conducted on the 21st day after the application in accordance with the standards as identified in Table 47. Symbol—represents “not tested”.

Johnsongrass (So) = test: as above; conditions: dose 1.6 g ai/10a, 21st day after application
Method: as §5, §7

China jute (Ab) [20] = test: as above; parameters: scale not given here; conditions: dose 1.6 g ai/10a, 21st day after application
Procedure, shortened: as §6

[21] = tested on: common lambsquarters (Ch); test: as above; parameters: scale not given here; conditions: dose 1.6 g ai/10a, 21st day after application
Procedure, shortened: as §6

green foxtail (Se) [22] = test: as above; parameters: scale not given here; conditions: dose 1.6 g ai/10a, 21st day after application
Procedure, shortened: as §6

pale smartweed (Po) [23] = test: as above; parameters: scale not given here; conditions: dose 1.6 g ai/10a, 21st day after application
Procedure, shortened: as §6

slender amaranth (Am) [24] = test: as above; parameters: scale not given here; conditions: dose 1.6 g ai/10a, 21st day after application
Procedure, shortened: as §6

CCc1cc2c(-c3cn(C)c(C(F)(F)F)cc3=O)c(F)cc(Cl)c2o1 [Compound 9-2]
Herbicidal effects Ec (barnyardgrass (Ec) [1]): 5
Herbicidal effects Sc (bulrush (Sc)): 5
Herbicidal effects Mo (monochoria (Mo)): 5
Herbicidal effects Di (Digitaria ciliaris (Di)): 5
Herbicidal effects Ec (barnyardgrass (Ec) [2]): 5
Herbicidal effects Ch [3]: 5
Herbicidal effects Po (pale smartweed (Po) [4]): 5
Herbicidal effects Ci (rice flatsedge (Ci) [5]): 5
Herbicidal effects Am (slender amaranth (Am) [6]): 5
Herbicidal effects Di (Diaitaria ciliaris (Di) [7]): 5
Herbicidal effects Ec (barnyardgrass (Ec) [8]): 5
Herbicidal effects Ch [9]: 5
Herbicidal effects Po (pale smartweed (Po) [10]): 5
Herbicidal effects Ci (rice flatsedge (Ci) [11]): 5
Herbicidal effects Am (slender amaranth (Am) [12]): 5
Phytotoxicity Go (cotton (Go); dose 1.6 g ai/10 a): 0
Phytotoxicity Go (cotton (Go); dose 6.3 g ai/10 a): 0
Herbicidal effects Di (Diaitaria ciliaris (Di) [13]; dose 1.6 g ai/10 a): 5
Herbicidal effects Di (Diaitaria ciliaris (Di) [13]; dose 6.3 g ai/10 a): 5
Herbicidal effects Ab (China jute (Ab) [14]; dose 1.6 g ai/10 a): 5
Herbicidal effects Ab (China jute (Ab) [14]; dose 6.3 g ai/10 a): 5
Herbicidal effects Ch ([15]; dose 1.6 g ai/10 a): 5
Herbicidal effects Ch ([15]; dose 6.3 g ai/10 a): 5
Herbicidal effects Se (green foxtail (Se) [16]; dose 1.6 g ai/10 a): 5
Herbicidal effects Se (green foxtail (Se) [16]; dose 6.3 g ai/10 a): 5
Herbicidal effects Po (pale smartweed (Po) [17]; dose 1.6 g ai/10 a): 5
Herbicidal effects Po (pale smartweed (Po) [17]; dose 6.3 g ai/10 a): 5
Herbicidal effects Am (slender amaranth (Am) [18]; dose 1.6 g ai/10 a): 5
Herbicidal effects Am (slender amaranth (Am) [18]; dose 6.3 g ai/10 a): 5
Phytotoxicity Gl (soybean (Gl)): 1
Herbicidal effects Di (Diaitaria ciliaris (Di) [19]): 5
Herbicidal effects So (Johnsongrass (So)): 5
Herbicidal effects Ab (China jute (Ab) [20]): 5
Herbicidal effects Ch [21]: 5
Herbicidal effects Se (green foxtail (Se) [22]): 5
Herbicidal effects Po (pale smartweed (Po) [23]): 5
Herbicidal effects Am (slender amaranth (Am) [24]): 5
